Entries after “also recorded” stand apart in the source; their conditions may differ.

This is an account of results in US20080171788A1, “Medicament For Irritable Bowel Syndrome” (priority 2005, published 2008).

One test concerns male Wister rats. The experiment in a line: Rat restraint stress-induced defecation model. The class given is in vivo. The conditions noted are these: for evacuation suppressing action: 10 mg/kg p.o., used independently, 10 mg/kg; for number of excreted stools, comparison with the non-administration group: each of the 1, 3 and 10 mg/kg administration groups, N=10. How it is done:
IBS-treating effect of the medicine of the invention was evaluated using a test method in which the amount of evacuations is measured by applying a restriction stress to rats (cf. J. Pharmacol. Exp. Ther. (1992) 261, 297-303). […] Each drug to be tested was administered to male Wister rats (body weight 250 to 320 g, 10 animals for each group), and a restraint stress was loaded 30 minutes thereafter. A restraint stress cage (KN-468, 265 mm in width×95 mm in length×200 mm in height, mfd. by Natsume Seisakusho, Tokyo) was used for the restraint stress loading, and the number of excreted stool was counted 1 hour after the stress loading. […] The control means the number of stools at the time of no stress loading, namely the reference value.

For the next test, the target named is 5-HT2B receptor (Homo sapiens, UniProt P41595). The conditions noted are these: in comparison with 5-HT1A, 5-HT1B, 5-HT2A, 5-HT2C, 5-HT3, 5-HT6, 5-HT7, α1, M1 and D2 receptors; cited from earlier work.
The target of a further test is α1 receptor. The test can be described thus: Affinity for other receptors: α1. It counts as binding.

5-HT2B receptor, sequence (P41595 whole entry): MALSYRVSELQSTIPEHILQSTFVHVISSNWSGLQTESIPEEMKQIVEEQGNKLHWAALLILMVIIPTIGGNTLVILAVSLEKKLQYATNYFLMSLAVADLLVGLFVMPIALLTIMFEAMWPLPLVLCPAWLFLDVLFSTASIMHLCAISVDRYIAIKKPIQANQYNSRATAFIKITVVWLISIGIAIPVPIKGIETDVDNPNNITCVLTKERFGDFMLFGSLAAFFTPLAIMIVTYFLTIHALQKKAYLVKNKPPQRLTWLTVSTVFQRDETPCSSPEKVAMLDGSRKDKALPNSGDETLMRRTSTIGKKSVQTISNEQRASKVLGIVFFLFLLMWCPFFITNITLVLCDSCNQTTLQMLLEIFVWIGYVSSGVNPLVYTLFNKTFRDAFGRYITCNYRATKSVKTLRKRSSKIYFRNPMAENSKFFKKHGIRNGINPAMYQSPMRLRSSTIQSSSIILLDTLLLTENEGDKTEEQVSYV

Consider `Cl.NC(N)=NC(=O)c1ccc2c(c1)C1(CCCO1)c1ccccc1-2` (single isomer, unassigned) [Production Example 60b], for which the evacuation suppression action entry with male Wister rats (3 mg/kg (p.o.)) is recorded as “suppression action similar to the level of Production Example 3”.

Take `CC(C)c1cc(-c2ccc(F)c3ccccc23)nc(N)n1` [RS-127445, 2-amino-4-(4-fluoronaphtho-1-yl)-6-isopropylpyrimidine]: in the test with male Wister rats, the evacuation suppressing action result is “did not show the evacuation suppressing action; also recorded: do not show the reaction” and the “number of excreted stools, comparison with the non-administration group” value is recorded as “Significant difference was not found”. In addition, the “selectivity for 5-HT2B receptor” value on 5-HT2B receptor is ≥ 1,000 times.

The term IC50 denotes the concentration that gives 50% inhibition. A higher IC50 goes with a need for much substance. `Cl.NC(N)=NC(=O)c1ccc2c(c1)C(O)c1ccccc1-2` (centres unmarked) [Production Example 3, N-(diaminomethylene)-9-hydroxy-9H-fluorene-2-carboxamide hydrochloride] registered an IC50 at α1 receptor of at least 1000 nM. Moreover, the evacuation suppression action result in the test with male Wister rats (3 mg/kg intraperitoneally (i.p.)) was “significant suppression action”.

For `CC1CCN(CC[C@H]2CCCN2S(=O)(=O)c2cccc(O)c2)CC1` [SB-269970, (R)-3-(2-(2-(4-methylpiperidine-1-yl)ethyl)pyrrolidine-1-sulfonyl)phenol], in the test on male Wister rats, the evacuation suppressing action result is “did not show the evacuation suppressing action; also recorded: do not show the reaction” and the “number of excreted stools, comparison with the non-administration group” value is “Significant difference was not found”.
